Assays:
[1] = target: β-glucan receptor of monocytes; conditions: Table 1; value from Czop and Austen, J. Immunology 135(5):3388-3393 (1985); cited from earlier work
[2] = test system: β-glucan receptor of monocytes; test: Inhibition of Zymosan ingestion by human monocytes (affinity for the monocyte β-glucan receptor); format: cell-based
Procedure: Human monocytes were incubated with various concentrations of the PGG for 15 minutes, washed to remove unbound glucan and then incubated with Zymosan for 30 minutes. After fixing and staining the monolayers, the percentage of monocytes ingesting Zymosan was determined. The affinity of glucan preparations for the β-glucan receptor by was measured according to their ability to competitively occupy the receptor thus inhibiting the uptake of Zymosan by monocytes. Samples were compared by taking the concentration of glucan required to obtain 50% inhibition of Zymosan ingestion.
Two molecular weight fractions of PGG from Saccharomyces cerevisiae R4 were prepared according to the procedure outlined in Example 2. The PGG preparations were then assayed for their affinity to the monocyte β-glucan receptor by measuring inhibition of Zymosan phagocytosis as described in Example 3.

[3] = test system: peripheral white blood cell (WBC) counts; test: Peripheral total and differential white blood cell counts in mice after IV or SC PGG; format: in vivo, male CD-1 mice
Procedure: The effect of in vivo administration of modified glucans on peripheral white blood cell (WBC) counts was characterized in mice. PGG preparations of the modified glucan from strain R4 were prepared according to the procedure outlined in Example 2 and administered intravenously (IV) and subcutaneously (SC) to male CD-1 mice. Total and differential cell counts were monitored at regular time intervals.

E. coli strain TVDL-rat = test: E. coli sepsis model in mice; format: in vivo
Procedure: A sepsis model was developed in mice to characterize the efficacy of modified PGG glucans in protecting an immunologically intact host against serious infections, such as those which commonly occur following abdominal surgery. PGG derived from WGP-R4 was prepared according to the procedure outlined in Example 2.
The model used intraperitoneal challenge of mice with an 0.1 ml suspension of E. coli strain TVDL-rat (approximately 10^8 CFU/ml) 24 hours following IV administration of PGG by single bolus injection using transthoracic cardiac puncture. Mice were returned to their cages and maintained on food and water ad libitum. A control group of 10 mice were injected with 0.1 ml sterile saline at the time of the PGG administration. Mortality rates for the treatment groups and saline control group were recorded at 48 hours after challenge.

[4] = most pronounced increase, FIGS. 2 and 3, mice
[5] = multiple-dose SC regimen, 5 mg/mouse/day×4 days, after initiation of therapy

| Substance | Concentration for 50% Inhibition [1] [µg/mL] | Relative Avidity ([2]; Table 1, relative to Barley β-Glucan = 1) | time to amplification of total WBC counts ([3]; FIGS. 2 and 3, mice) [h] | increase in granulocyte count [3, 4] [×] | increase in monocyte count [3, 4] [×] | increase in average monocyte count, zero hours to 144 hours ([3]; multiple-dose SC regimen) [fold] | time at which increase in total WBC begins [3, 5] [h] | time at which increase in total WBC peaks [3, 5] [h] | average monocyte count ([3]; multiple-dose SC regimen, at 144 hours (320/mm^3 at zero hours)) | total WBC count ([3]; single-dose IV administration, 5 mg/mouse) | lowest dose significantly reducing mortality (E. coli strain TVDL-rat; single IV bolus 24 hours before E. coli challenge, equals 0.5 mg/kg body weight) [mg/mouse] | mortality at 48 hours after challenge compared to saline control group (E. coli strain TVDL-rat; single IV bolus 24 hours before intraperitoneal E. coli challenge, p<0.05, doses as low as 0.01 mg/mouse (0.5 mg/kg body weight)) | concentration of glucan required to obtain 50% inhibition of Zymosan ingestion ([2]; human monocytes incubated with glucan 15 minutes, then Zymosan 30 minutes, FIG. 1) [µg/mL] | increase in activity (affinity for monocyte β-glucan receptor) versus YE glucan ([2]; ratio of concentrations for 50% inhibition of Zymosan ingestion) [fold] |
| --- | --- | --- | --- | --- | --- | --- | --- | --- | --- | --- | --- | --- | --- | --- |
| Barley β-Glucan [reference compound] | 65 | 1 |  |  |  |  |  |  |  |  |  |  |  |  |
| poly-(1-6)-β-D-glucopyranosyl-(1-3)-β-D-glucopyranose [PGG] |  |  | < 6 | 6 | 12 | 24 | 48 | 144 | approximately 8,000 /mm^3 | profound increase | 0.01 | significantly reduced mortality | 0.1 | 35 |
